Data reported in patent publication US6391327B1, “Pesticidal composition” (priority 1998, dated 2002).
Where two headings read alike, the source gives them in different places.

Columns and labels:
[1] = tested on: housefly (Musca domestica) which is resistant to pyrethroid; type: in vivo; conditions: topical, 2 days later, average of 3
Excerpt: One half (0.5)μL of the following acetone dissolving solution wherein the concentration was adjusted to set forth a dosage given below, was applied to the back thoracic region of a housefly (Musca domestica) which is resistant to pyrethroid and the mortality was examined 2 days later.

[2] = tested on: Formosan subterranean termites (Coptotermes formosanus); assay: Soil tunneling test in glass tube with Formosan subterranean termites; type: in vivo; conditions: concentration of application 20 ppm, a week later, three repeats
Experimental: Three (3) cm of soil was packed into the central inner portion of a glass tube that has an inner diameter of 1.7 cm and is 15 cm long, and on one surface of the soil, 0.7 mL of each aqueous solution that has the examined compound formulated to a determined dilution (examined compound and applied concentration given in table 3). Subsequently, 4% agar was inserted onto both surfaces of the soil, 50 worker Formosan subterranean termites (Coptotermes formosanus) and 5 soldier Formosan subterranean termites were deposited into side of the inner part of the tube wherein no compound was applied, and the tunneled soil condition by the termites was examined a week later. The example was repeated thrice.
Within the results of table 3, A represents a condition wherein the termites tunneled through the surface of the soil of the treated side and the non-treated side, B represents a condition wherein the surface of the soil of the treated side was tunneled through and the agar was tunneled halfway, C represents a condition wherein the surface of the soil of the treated side was incompletely tunneled through and the agar had no visible tunneling.

| Structure (SMILES) | mortality (%) ([1]; dosage 1.25 μg per insect) | mortality (%) ([1]; dosage 2.5 μg per insect) | mortality (%) ([1]; dosage 5 μg per insect) | mortality (%) ([1]; dosage 10 μg per insect) | mortality (%) ([1]; dosage 0.625 μg per insect) | results (tunneled soil condition by the termites) [2] |
| --- | --- | --- | --- | --- | --- | --- |
| C#CCC1=C(C)C(OC(=O)C2C(C=C(C)C)C2(C)C)CC1=O (mixture of isomers) [Prallethrin, (S)-2-methyl-4-oxo-3-prop-2-ynylcyclopent-2-enyl (1R)-cis,trans-2,2-dimethyl-3-(2-methylprop-1-enyl)cyclopropanecarboxylate] | 6.7% | 10% | 30% |  |  |  |
| C/C(=N\C#N)N(C)Cc1ccc(Cl)nc1 [Compound A, (E)-N^1-[(6-chloro-3-pyridyl)methyl]-N^2-cyano-N^1-methylacetamidine] | 15% |  | 15% | 5% |  |  |
| CNC(=N[N+](=O)[O-])NCC1CCOC1 (stereo not shown) [Compound B, 1-(tetrahydrofuran-3-yl)methyl-3-methyl-2-nitroguanidine] | 45% |  |  |  | 10% | ACA |
| CN1COCN(Cc2cnc(Cl)s2)C1=N[N+](=O)[O-] [Compound D, 3-[(2-chloro-5-thiazolyl)methyl]-5-methyl-4-nitroiminotetrahydro-1,3,5-oxadiazine] |  |  |  |  |  | AAA |
